Laboratory results published in US20150010928A1, “MEANS AND METHODS FOR ASSESSING AN ENDOCRINE DISEASE OR DISORDER” (priority 2012, published 2015).
Marks after values point to notes of the source that are not given here.

Test system: female rats
Experiment: Plasma metabolite profiling (GC-MS, LC-MS, SPE-LC-MS) in female rats dosed once daily over 28 days (OECD 407)
Assay type: in vivo, rat
Conditions: high dose
Summary of the method: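 Polar and lipid fractions profiled by GC-MS and LC-MS/MRM, steroids by online SPE-LC-MS; pool-normalized data compared to controls by Welch test as treatment ratios and p-values.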

`C[C@]12C=CC3=C4CCC(=O)C=C4CCC3C1CC[C@@H]2O` (stereo partly drawn) [Trenbolone] was tested, and the 3-Hydroxybutyrate (f7, female rats, Table 15a) was 2.05 *, the “DAG (C18:1,C18:2)” value (f7, female rats, Table 15a) was 1.42 * and the Glutamate (f7, female rats, Table 15a) was 1.18. The Glycine (f7, female rats, Table 15a) was 1.18 *, the “Phosphatidylcholine (C16:0,C20:5)” value (f7, female rats, Table 15a) was 1.09 and the “TAG (C16:0,C16:1)” value (f7, female rats, Table 15a) was 1.49 *. For the same compound, the “TAG (C16:0,C18:1,C18:3)” value (f7, female rats, Table 15a) was 1.48 *, the “TAG (C16:0,C18:2)” value (f7, female rats, Table 15a) was 1.83 * and the “TAG (C18:1,C18:2)” value (f7, female rats, Table 15a) was 1.72 *. The “TAG (C18:2,C18:2)” value (f7, female rats, Table 15a) was 1.61 *, the “TAG (C18:3, C18:2, C18:1)” value (f7, female rats, Table 15a) was 1.92 * and the “TAG (DAG-Fragment)” value (f7, female rats, Table 15a) was 1.8 *. The “TAG No 059” value (f7, female rats, Table 15a) was 1.62 *, the Threonic acid (f7, female rats, Table 15a) was 1.28 * and the trans-4-Hydroxyproline (f7, female rats, Table 15a) was 1.31 *. For the same compound, the Androstenedione (f7, female rats, Table 15b) was 0.3 *, the Arginine (f7, female rats, Table 15b) was 0.76 * and the Campesterol (f7, female rats, Table 15b) was 0.53 *. For the same compound, the “Ceramide (d18:1,C24:0)” value (f7, female rats, Table 15b) was 0.5 *, the Lactate (f7, female rats, Table 15b) was 0.65 * and the Lysine (f7, female rats, Table 15b) was 0.68 *. For the same compound, the Metanephrine (f7, female rats, Table 15b) was 1, the Normetanephrine (f7, female rats, Table 15b) was 0.83 * and the “Phosphatidylcholine (C16:0,C20:5)” value (f7, female rats, Table 15b) was 1.09. For the same compound, the “Phosphatidylcholine (C16:0,C22:6)” value (f7, female rats, Table 15b) was 0.89, the “Phosphatidylcholine (C18:0, C20:3)” value (f7, female rats, Table 15b) was 0.77 * and the “Phosphatidylcholine (C18:0,C18:1)” value (f7, female rats, Table 15b) was 0.84. For the same compound, the Progesterone (f7, female rats, Table 15b) was 0.34 *, the Pyruvate (f7, female rats, Table 15b) was 0.57 * and the “Sphingomyelin (d18:1,C23:0)” value (f7, female rats, Table 15b) was 0.51 *. The “Sphingomyelin (d18:1,C24:0)” value (f7, female rats, Table 15b) was 0.62 *, the Urea (f7, female rats, Table 15b) was 0.74 * and the 3-Hydroxybutyrate (f14, female rats, Table 15a) was 1.73 *. For the same compound, the “DAG (C18:1,C18:2)” value (f14, female rats, Table 15a) was 1.56, the Glutamate (f14, female rats, Table 15a) was 1.13 * and the Glycine (f14, female rats, Table 15a) was 1.2 *. For the same compound, the “Phosphatidylcholine (C16:0,C20:5)” value (f14, female rats, Table 15a) was 1.18 *, the “TAG (C16:0,C16:1)” value (f14, female rats, Table 15a) was 1.41 and the “TAG (C16:0,C18:1,C18:3)” value (f14, female rats, Table 15a) was 2.26 *. For the same compound, the “TAG (C16:0,C18:2)” value (f14, female rats, Table 15a) was 1.9, the “TAG (C18:1,C18:2)” value (f14, female rats, Table 15a) was 1.97 * and the “TAG (C18:2,C18:2)” value (f14, female rats, Table 15a) was 2.21 *. The “TAG (C18:3, C18:2, C18:1)” value (f14, female rats, Table 15a) was 2.39 *, the “TAG (DAG-Fragment)” value (f14, female rats, Table 15a) was 2.67 * and the “TAG No 059” value (f14, female rats, Table 15a) was 2.14 *. For the same compound, the Threonic acid (f14, female rats, Table 15a) was 1.76 *, the trans-4-Hydroxyproline (f14, female rats, Table 15a) was 1.37 * and the Androstenedione (f14, female rats, Table 15b) was 0.15 *. The Arginine (f14, female rats, Table 15b) was 0.69 *, the Campesterol (f14, female rats, Table 15b) was 0.4 * and the “Ceramide (d18:1,C24:0)” value (f14, female rats, Table 15b) was 0.41 *. For the same compound, the Lactate (f14, female rats, Table 15b) was 0.56 *, the Lysine (f14, female rats, Table 15b) was 0.62 * and the Metanephrine (f14, female rats, Table 15b) was 1.03. The Normetanephrine (f14, female rats, Table 15b) was 0.83 *, the “Phosphatidylcholine (C16:0,C20:5)” value (f14, female rats, Table 15b) was 1.18 and the “Phosphatidylcholine (C16:0,C22:6)” value (f14, female rats, Table 15b) was 0.87 *. For the same compound, the “Phosphatidylcholine (C18:0, C20:3)” value (f14, female rats, Table 15b) was 0.75 *, the “Phosphatidylcholine (C18:0,C18:1)” value (f14, female rats, Table 15b) was 0.66 * and the Progesterone (f14, female rats, Table 15b) was 0.17 *. For the same compound, the Pyruvate (f14, female rats, Table 15b) was 0.61 *, the “Sphingomyelin (d18:1,C23:0)” value (f14, female rats, Table 15b) was 0.46 * and the “Sphingomyelin (d18:1,C24:0)” value (f14, female rats, Table 15b) was 0.64 *. For the same compound, the Urea (f14, female rats, Table 15b) was 0.72 *, the 3-Hydroxybutyrate (f28, female rats, Table 15a) was 1.32 * and the “DAG (C18:1,C18:2)” value (f28, female rats, Table 15a) was 1.79 *. The Glutamate (f28, female rats, Table 15a) was 1.23 *, the Glycine (f28, female rats, Table 15a) was 1.37 * and the “Phosphatidylcholine (C16:0,C20:5)” value (f28, female rats, Table 15a) was 1.17 *. The “TAG (C16:0,C16:1)” value (f28, female rats, Table 15a) was 1.28 *, the “TAG (C16:0,C18:1,C18:3)” value (f28, female rats, Table 15a) was 2.48 * and the “TAG (C16:0,C18:2)” value (f28, female rats, Table 15a) was 2.08 *. For the same compound, the “TAG (C18:1,C18:2)” value (f28, female rats, Table 15a) was 2.25 *, the “TAG (C18:2,C18:2)” value (f28, female rats, Table 15a) was 2.7 * and the “TAG (C18:3, C18:2, C18:1)” value (f28, female rats, Table 15a) was 3.06 *. For the same compound, the “TAG (DAG-Fragment)” value (f28, female rats, Table 15a) was 3.12 *, the “TAG No 059” value (f28, female rats, Table 15a) was 2.7 * and the Threonic acid (f28, female rats, Table 15a) was 0.84. The trans-4-Hydroxyproline (f28, female rats, Table 15a) was 1.66 *, the Androstenedione (f28, female rats, Table 15b) was 0.23 * and the Arginine (f28, female rats, Table 15b) was 0.78 *. The Campesterol (f28, female rats, Table 15b) was 0.9, the “Ceramide (d18:1,C24:0)” value (f28, female rats, Table 15b) was 0.69 * and the Lactate (f28, female rats, Table 15b) was 0.59 *. The Lysine (f28, female rats, Table 15b) was 0.65 *, the Metanephrine (f28, female rats, Table 15b) was 0.47 * and the Normetanephrine (f28, female rats, Table 15b) was 0.75 *. For the same compound, the “Phosphatidylcholine (C16:0,C20:5)” value (f28, female rats, Table 15b) was 1.17, the “Phosphatidylcholine (C16:0,C22:6)” value (f28, female rats, Table 15b) was 0.93 and the “Phosphatidylcholine (C18:0, C20:3)” value (f28, female rats, Table 15b) was 0.87 *. The “Phosphatidylcholine (C18:0,C18:1)” value (f28, female rats, Table 15b) was 0.81 *, the Progesterone (f28, female rats, Table 15b) was 0.3 * and the Pyruvate (f28, female rats, Table 15b) was 0.72 *. The “Sphingomyelin (d18:1,C23:0)” value (f28, female rats, Table 15b) was 0.64 *, the “Sphingomyelin (d18:1,C24:0)” value (f28, female rats, Table 15b) was 0.74 * and the Urea (f28, female rats, Table 15b) was 0.54 *.
